Data: patent publication US20200046774A1, “COMPOSITION FOR PREVENTING OR TREATING BONE DISEASES WHICH HAS EXCELLENT BONE REGENERATION EFFECT” (KOREA UNIVERSITY RESEARCH AND BUSINESS FOUNDATION, priority 2017, published 2020)

Assays:
[1] = test system: TDF cell line of Example 3; test: Evaluation of apoptosis by gancyclovir treatment (HSV-tk kill switch); type: cell-based; conditions: 0, 50 and 500 μg/ml, 72 hours to 124 hours; depending on concentration and time; FIGS. 12 and 13
Protocol: TDF cell line of Example 3, a cell line of Example 3 was treated with gancyclovir in concentrations of 0 μg/ml, 50 μg/ml and 500 μg/ml, respectively, and the number of cells was observed and analyzed for a period of 72 hours to 124 hours, as shown in FIGS. 12 and 13.

[2] = test system: HGPRT knockout cell line of Example 14; conditions: after 9 days of 6-TG treatment, in comparison to the TDF cell line of Example 3; FIG. 20
[3] = test system: alkaline phosphatase (ALP); test: ALP activity (early osteogenic induction ability), OIM or GM culture; conditions: 1 ng/ml, 2 ng/ml and 5 ng/ml of BMP-2, 7 days after induction of osteogenesis, versus control not treated with BMP-2; FIG. 4
Protocol: After 3 days and 7 days of the culturing, samples were washed twice with a PBS solution, and dissolved in a cell lysis buffer to which 0.1% Triton X-10 was added.
Lysed cells were centrifuged at 4° C. and 13000 rpm for 30 minutes, and then a supernatant was recovered and quantitated by a Bradford assay. The ALP activity was measured at 405 nm for the same amount of proteins using an ALP kit (AnaSpec), and the results are shown in FIG. 3.

Nc1nc(O)c2ncn(COC(CO)CO)c2n1 [ganciclovir]
cell growth / number of cells under gancyclovir [1]: cell growth is inhibited

Nc1nc2[nH]cnc2c(=S)[nH]1 [Example 6-TG, 6-tioguanine]
cell survival under 6-TG treatment [2]: more cells survived

BMP-2
ALP activity of normal TDF cell line with BMP-2 injected from the outside [3]: statistically significant ALP activity was not observed
